Assay results taken from patent US7094581B2, “Hyaluronan synthases and methods of making and using same” (The Board of Regents of the University of Oklahoma, priority 1998, dated 2006).
Where two headings read alike, the source gives them in different places.

Key:
spHAS [1] = target: T1, spHAS (Streptococcus pyogenes serotype M6, UniProt Q5X9A9); assay: Effect of sulfhydryl reagents on spHAS activity in E. coli membranes; assay type: biochemical; details: for Inhibition of HAS Activity (% relative to control), spHAS: E. coli membranes with spHAS-H6, 4° C. 1 h, 5 mM NEM, 5 mM IAA, 0.5 mM 5,5′-dithiobis-(2-nitrobenzoic acid), 0.05 mM methylmethanethiosulfonate, 10 mM sodium arsenite
T1 construct: made in house; host or cells: E. coli SURE cells (isolated membranes)
T1 sequence (Q5X9A9 1-419): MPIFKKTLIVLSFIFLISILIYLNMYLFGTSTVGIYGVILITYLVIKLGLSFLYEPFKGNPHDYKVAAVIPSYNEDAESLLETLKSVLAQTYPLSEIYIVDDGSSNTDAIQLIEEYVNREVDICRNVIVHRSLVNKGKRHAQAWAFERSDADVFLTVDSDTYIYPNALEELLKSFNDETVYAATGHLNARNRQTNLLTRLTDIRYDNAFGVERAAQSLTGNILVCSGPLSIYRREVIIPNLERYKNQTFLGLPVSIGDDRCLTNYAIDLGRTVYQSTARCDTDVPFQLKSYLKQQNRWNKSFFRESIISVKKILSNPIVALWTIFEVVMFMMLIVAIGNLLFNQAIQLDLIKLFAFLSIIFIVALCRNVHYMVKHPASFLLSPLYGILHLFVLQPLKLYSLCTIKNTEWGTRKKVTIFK
Procedure: (§1) SeHAS is the smallest HAS protein (417 amino acids) and contains four Cys residues. […] To explore the possible role of cysteines in the function of HAS, the activities of seHAS and spHAS were assayed in the presence of different sulfhydryl reagents (Table II). […] The inhibition of each HAS by NEM was examined in more detail with respect to time of incubation and NEM concentration (FIG. 2).
(§2) E. coli SURE cells transformed with plasmids containing various seHAS mutants were grown in LB medium with vigorous shaking at 32° C. to A600 ˜0.8 and induced with 1 mM isopropyl-β-thiogalactoside for 3 h. Cells were harvested and membranes were prepared as described previously. The kinetic constants for HAS were determined at 37° C. in 100 μl of 50 mM sodium and potassium phosphate, pH 7.0, with 20 mM MgCl2, 1 mM DTE, 240 μM UDP-GIcUA, 0.7 μM UDP-[^14C]GIcUA and 0.6–1.0 mM UDP-GIcNAc. in 100 μl of 25 mM sodium and potassium phosphate, pH 7, containing 50 mM NaCl, 20 mM MgCl2, 1 mM dithiothreitol, 1 mM UDP-GIcUA, 0.68 μM UDP-GIcUA and 1 mM UDP-GIcNAc. Some assays also contained 0.1 mM EDTA and 20% glycerol (v/v). To initiate the enzyme reaction, ˜0.5–40 μg of membrane protein was added and the mixtures were gently shaken in a MicroMixer X-36 (Tiatec) at 30° C. for 1–2 h. Reactions were terminated by the addition of SDS to a final concentration of 2% (w/v). The incorporation of radioactive [^14C]GIcUA was determined by descending paper chromatography and the Km and Vmax values were determined as described by Tlapak-Simmons et al (1999b). Data were analyzed by the methods of Michaelis-Menton or Hill. Protein content was determined by the method of Bradford using bovine serum albumin as the standard. All Cys-mutant or sulfhydryl-treated seHAS samples were assayed in duplicate or triplicate using two or three independent membrane preparations. […] All enzyme assays were performed under conditions that were linear with respect to time and protein concentration.
(§3) Stock solutions (10–100 mM) of NEM, IAA or other sulfhydryl reagents were made in PBS, pH 7.0. Suspensions of membranes containing seHAS or spHAS were incubated with 0–5 mM of the sulfhydryl reagent at 4° C. and the reactions were stopped by adding DTE to a final concentration of 10 mM. The membranes were then assayed for HAS activity as described above.

seHAS [2] = assay: Effect of sulfhydryl reagents on seHAS activity in E. coli membranes; assay type: biochemical, Streptococcus equisimilis; details: E. coli membranes with seHAS-H6, 4° C. 1 h, 5 mM NEM, 5 mM IAA, 0.5 mM 5,5′-dithiobis-(2-nitrobenzoic acid), 0.05 mM methylmethanethiosulfonate, 10 mM sodium arsenite
Procedure: as §1, §2, §3

wild-type seHAS = assay: Utilization of UDP-GlcUA and UDP-GlcNAc by wild-type seHAS after NEM or sodium arsenite treatment; assay type: biochemical, Streptococcus equisimilis; details: membranes 4° C. 1 h with 5 mM NEM or 10 mM sodium arsenite
Procedure: FIG. 3. Effect of NEM or sodium arsenite treatment on the utilization of UDP-GIcUA and UDP-GIcNAc by wild-type seHAS. E. coli membranes containing seHAS protein were incubated at 4° C. for 1 h in PBS containing 5 mM NEM or 10 mM Sodium Arsenite (SodArs), and the control membranes were incubated with PBS alone. Michaelis-Menten constants (Km) were calculated from the activities of seHAS at varying concentrations of UDP-GIcUA or UDP-GIcNAc.
Modification of the protein by NEM could affect any one or several of the six discrete functions that HAS must perform in order to synthesize HA. In order to determine if one of the nucleotide-sugar binding sites was affected by NEM, we examined the UDP-GIcUA and UDP-GIcNAc saturation profiles for treated and untreated seHAS (FIG. 3 and Table III).
E. coli SURE cells transformed with plasmids containing various seHAS mutants were grown in LB medium with vigorous shaking at 32° C. to A600 ˜0.8 and induced with 1 mM isopropyl-β-thiogalactoside for 3 h. Cells were harvested and membranes were prepared as described previously. The kinetic constants for HAS were determined at 37° C. in 100 μl of 50 mM sodium and potassium phosphate, pH 7.0, with 20 mM MgCl2, 1 mM DTE, 240 μM UDP-GIcUA, 0.7 μM UDP-[^14C]GIcUA and 0.6–1.0 mM UDP-GIcNAc. in 100 μl of 25 mM sodium and potassium phosphate, pH 7, containing 50 mM NaCl, 20 mM MgCl2, 1 mM dithiothreitol, 1 mM UDP-GIcUA, 0.68 μM UDP-GIcUA and 1 mM UDP-GIcNAc. Some assays also contained 0.1 mM EDTA and 20% glycerol (v/v). To initiate the enzyme reaction, ˜0.5–40 μg of membrane protein was added and the mixtures were gently shaken in a MicroMixer X-36 (Tiatec) at 30° C. for 1–2 h. Reactions were terminated by the addition of SDS to a final concentration of 2% (w/v). The incorporation of radioactive [^14C]GIcUA was determined by descending paper chromatography and the Km and Vmax values were determined as described by Tlapak-Simmons et al (1999b). Data were analyzed by the methods of Michaelis-Menton or Hill. Protein content was determined by the method of Bradford using bovine serum albumin as the standard. All Cys-mutant or sulfhydryl-treated seHAS samples were assayed in duplicate or triplicate using two or three independent membrane preparations. Results are presented as the mean±standard errors. All enzyme assays were performed under conditions that were linear with respect to time and protein concentration. None of the seHAS variant enzymes were unstable under the conditions employed.

seHAS [3] = assay type: biochemical, Streptococcus equisimilis; details: for Hill number: seHAS variants, UDP-GlcNAc utilization
Procedure: as §2

spHAS [4] = assay: Kinetic analysis of Cys-mutants of spHAS, normalized to spHAS protein; assay type: biochemical, Streptococcus pyogenes; parameters: Vmax: unit not given here
Procedure: Kinetic analyses of the single and multiple spHAS Cys-mutants were performed to investigate the possibility that multiple Cys residues are critical in a coordinated way for enzyme activity. […] The spHAS(C225S) and spHAS(C280A) mutants had the most reduced activities with Vmax values at 30–50% of wildtype. The spHAS(C261,280A) and Cys-null mutant had 50–75% of the wildtype activity.
Membranes were isolated from E. coli SURE strains expressing mutant or wildtype spHAS, fractionated by SDS-PAGE according to the procedure of Laemmli (1970) and the proteins were electrotransferred to nitrocellulose as described by Towbin et al. (1979) with minor modifications (Tlapak-Simmons, et al., 1998). Western analysis was performed by incubating these blots for 1 h at room temperature with a biotinylated anti-His5 monoclonal antibody, as the primary antibody, then washing and incubating with 3 μg/ml ^125I-streptavidin, prepared as described hereinabove. After 1 h at room temperature, the blots were washed, dried and exposed to a Phosphoscreen for 1 to 72 h. The screens were analyzed using a Molecular Dynamics Phosphoimager and integrated density values were obtained for each spHAS band. Integrated density values were also obtained for increasing amounts of affinity-purified spHAS (Tlapak-Simmons et al., 1999a), which was used as an internal standard in the same blot to generate a standard curve. Dilutions of membrane samples were made as necessary to ensure that all estimates of HAS quantity were in the linear range of the assay. Those membrane samples giving a linear response with increasing protein were then compared to the standard curve to calculate the amount of spHAS present per μl membrane suspension. These values were then used to normalize the kinetic results obtained using membranes from the various spHAS mutants.
E. coli SURE cells, previously transformed with plasmids containing wildtype or mutant spHAS genes, were grown to an A600 of ˜1.2 and induced with 1 mM isopropyl thio-β-D-galactoside for three h. Cells were harvested and membranes were prepared as described previously (Tlapak-Simmons, et al., 1999a). The activities of mutant spHAS variants were assessed by measuring their Vmax and Km values in isolated membranes, normalized as described above for the amount of enzyme expressed. The Km values were determined using a descending paper chromatography assay (Tlapak-Simmons, et al., 1999b), holding one UDP-sugar substrate constant and varying the other from 0.01 to 4 mM. Data were analyzed by linear regression using Haynes-Wolf plots for UDP-GIcUA or Hill plots for UDP-GIcNAc.

With `CSS(C)(=O)=O` [Methylmethanethiosulfonate] the “Inhibition of HAS Activity (% relative to control), spHAS” value (spHAS [1]) was 89 ± 5.5%, the “Inhibition of HAS Activity (% relative to control), seHAS” value (seHAS [2]) was 93 ± 5.4% and the “Inhibition of HAS Activity (% relative to control), seHAS” value (seHAS [2]; listed as methylmethanethiosulfonate) was greater than 93%.

`O=C(O)c1cc(SSc2ccc([N+](=O)[O-])c(C(=O)O)c2)ccc1[N+](=O)[O-]` [5,5′-dithiobis-(2-nitrobenzoic acid)] was tested, and the “Inhibition of HAS Activity (% relative to control), spHAS” value (spHAS [1]) was 52 ± 4.9% and the “Inhibition of HAS Activity (% relative to control), seHAS” value (seHAS [2]) was 52 ± 6.5%.

`O=[As]O` [Sodium Arsenite] was tested, and the inhibition at 10000 µM (spHAS [1]; read-out: Inhibition of HAS Activity (% relative to control), spHAS) was 46 ± 5.1%, the “Inhibition of HAS Activity (% relative to control), seHAS” value (seHAS [2]) was 40 ± 4.0% and the “Vmax of treated wild-type seHAS, UDP-GlcNAc” value (wild-type seHAS) was 9.5 ± 1.1 nmol/µg/h. The “Vmax of treated wild-type seHAS, UDP-GlcUA” value (wild-type seHAS) was 9.5 ± 1.1 nmol/µg/h, the Km (wild-type seHAS; read-out: Km for UDP-GlcNAc of treated wild-type seHAS) was 112 ± 38 µM and the Km (wild-type seHAS; read-out: Km for UDP-GlcUA of treated wild-type seHAS) was 67 ± 23 µM.

With `O=C(O)CI` [Iodacetic acid] the “Inhibition of HAS Activity (% relative to control), spHAS” value (spHAS [1]) was 13 ± 5.4% and the “Inhibition of HAS Activity (% relative to control), seHAS” value (seHAS [2]) was 15%.

B1: WT: wild-type Streptococcus equisimilis hyaluronan synthase (seHAS-His6), SEQ ID NO:2 (protein, listed as Streptococcus equisimilis)
chain: MRTLKNLITVVAFSIFWVLLIYVNVYLFGAKGSLSIYGFLLIAYLLVKMSLSFFYKPFKGRAGQYKVAAIIPSYNEDAESLLETLKSVQQQTYPLAEIYVVDDGSADETGIKRIEDYVRDTGDLSSNVIVHRSEKNQGKRHAQAWAFERSDADVFLTVDSDTYIYPDALEELLKTFNDPTVFAATGHLNVRNRQTNLLTRLTDIRYDNAFGVERAAQSVTGNILVCSGPLSVYRREVVVPNIDRYINQTFLGIPVSIGDDRCLTNYATDLGKTVYQSTAKCITDVPDKMSTYLKQQNRWNKSFFRESIISVKKIMNNPFVALWTILEVSMFMMLVYSVVDFFVGNVREFDWLRVLAFLVIIFIVALCRNIHYMLKHPLSFLLSPFYGVLHLFVLQPLKLYSLFTIRNADWGTRKKLL
modifications: His6 tag
Work on B1 yielded a Vmax (seHAS [3]; seHAS variants in membranes from E. coli SURE cells) of 5.60 ± 0.48 nmol/pmol/h, a Km (seHAS [3]; seHAS variants in membranes from E. coli SURE cells, read-out: Km for UDPGlcNAc) of 74 ± 7 µM and a Km (seHAS [3]; seHAS variants in membranes from E. coli SURE cells, read-out: Km for UDPGlcUA) of 77 ± 5 µM. For the same molecule, the Hill number (seHAS [3]) was 1.1 ± 0.1 and the Hill number (seHAS [3]; listed as wild-type) was 1.0.

B2: Wildtype: wildtype Streptococcus pyogenes hyaluronan synthase (spHAS-His6), SEQ ID NO:4 (protein)
chain: MPIFKKTLIVLSFIFLISILIYLNMYLFGTSTVGIYGVILITYLVIKLGLSFLYEPFKGNPHDYKVAAVIPSYNEDAESLLETLKSVLAQTYPLSEIYIVDDGSSNTDAIQLIEEYVNREVDICRNVIVHRSLVNKGKRHAQAWAFERSDADVFLTVDSDTYIYPNALEELLKSFNDETVYAATGHLNARNRQTNLLTRLTDIRYDNAFGVERAAQSLTGNILVCSGPLSIYRREVIIPNLERYKNQTFLGLPVSIGDDRCLTNYAIDLGRTVYQSTARCDTDVPFQLKSYLKQQNRWNKSFFRESIISVKKILSNPIVALWTIFEVVMFMMLIVAIGNLLFNQAIQLDLIKLFAFLSIIFIVALCRNVHYMVKHPASFLLSPLYGILHLFVLQPLKLYSLCTIKNTEWGTRKKVTIFK
modifications: His6 tag; Streptococcus pyogenes
B2 was tested, and the “Hill number” value (spHAS [4]; UDP-GlcNAc utilization) was 1.8 ± 0.1, the Km (spHAS [4]; at 0.5 mM UDP-GlcUA, read-out: Km UDP-GlcNAc) was 398 ± 112 µM and the Km (spHAS [4]; at 1.5 mM UDP-GlcNAc, read-out: Km UDP-GlcUA) was 50.4 ± 10.8 µM. It also gave a Vmax (spHAS [4]; both substrates incorporated per hour per pmol spHAS) of 791 ± 215.
